Data: US10400008B2, “Modulators of the SRC-kinase activity for preventing or treating metastatic cancer” (Cancer Research Technology Limited, priority 2013, dated 2019)
Several values for one entry are separate records, joined by “and”; a condition that tells them apart may be missing. Equal values may be shown once. Entries after “also recorded” stand apart in the source; their conditions may differ.

Legend:
HT1080 cells = experiment: Migration in Trans-well filters and wound healing of HT1080 cells; format: cell-based, human; details: 6 h, peptide 1 nM
Experimental: FIG. 4: The S1 peptide inhibits EGF-stimulated migration and MMP-9 secretion in HT1080 cells. Quiescent HT1080 cells were used. In A, cells were left untreated or treated for 6 h with the indicated compounds. MMP-9 release was assayed as described in Methods. In B, cells were allowed to migrate for 6 h in Trans-well filters in the absence or presence of the indicated compounds. Migrated cells were stained and counted as reported in Methods. In A and B, data were expressed as relative increase. Mean and SEM is shown. n represents the number of experiments. In C, cells were wounded and then left unstimulated or stimulated for 6 h with the indicated compounds. Contrast-phase images are representative of 3 different experiments, each performed in duplicate.
BrdU incorporation, migration and wound healing analysis were done as described (3, 11). MMP-9 activity was assayed (12, 13), using the fluorescent AK411 kit (BIOMOL Res. Lab.).

PC-3 cells = experiment: Orthotopic PC-3 prostate cancer model: tumor volume and lymph node metastases; format: in vivo, BALB/c nude mice; details: for incidence of lymph node metastasis: vs vehicle; for Total tumor volumes during the study: animals 2.x (0.04 mg/kg by heads of Tables 2-3)
Experimental: Six week-old immunodeficient BALB/c nude mice were allocated to six 15-mice groups according to the body weight. PC-3 cells were inoculated orthotopically into prostates of the mice. Dosing (s.c.) was started at study day 1 and continued daily for 28 days.
(§1) Mice were weighed twice a week, and after 4 weeks, mice were sacrificed. Gross necropsy was performed to all animals at the end of the study, and all macroscopic signs were recorded. Volume of the prostate tumors was measured and prostate as well as prostate draining lymph nodes were collected for histology. The number of metastasis in lymph nodes was determined under microscope.
The 0.01 mg/ml, 0.1 mg/ml, 1 mg/ml, 2.5 mg/ml and 5 mg/ml dosing suspensions were prepared from test peptide VAL001 by dilution to PBS. […] New dosing suspensions were prepared every week.
An animal model was used that can be effectively used for testing the effects of cancer drug candidates on the primary tumor growth in prostate microenvironment. In this model, human prostate cancer cells are inoculated into prostate of 4-5 week old male BALB/c nude mice. This mouse strain is immunodeficient, allowing rapid growth and spread of the human cancer cells. Within four weeks after the inoculation, animal develop large tumor to prostate and metastases to regional iliac and sacral lymph nodes. The animals are sacrificed at 4 weeks after inoculation, and their prostate with tumor and regional lymph nodes are collected for further histomorphometric analysis.
Male BALB/c nude mice (BALB/c OlaHsd-Foxn1^nu, obtained from Harlan, The Netherlands) were used for this study. The age of the animals was 6-7 weeks, and their body weights were approximately 16-23 g at the beginning of the study. The mice were specific pathogen free (SPF) and isolator-reared animals. Correct age and good clinical health were qualifications for the study. The acclimatization period for the mice was 4 days. Allocation to groups was performed by randomization procedure based on body weight. The animals were marked with ear marks. For orthotopic inoculations the mice were anesthetized with inhalation of isoflurane. Analgesia was provided before and 2 days after the orthotopic inoculation with buprenorphine: 0.1 mg/kg, s.c.
(§2) At the end of the study, the animals were weighed and sacrificed with cervical dislocation under anesthesia. Necropsy was carried out in all animals. Macroscopic findings were recorded on the follow-up forms. Tissue samples from prostate with tumor and lymph nodes were collected for histology and number of metastases in lymph nodes was determined.
(§3) Statistical analysis was performed with R: A Language and Environment for Statistical Computing (version 2.14.2; R Development Core Team, Vienna, Austria). The mean and standard deviation of the body weights and the tumor volumes at sacrifice were determined. Normality of the distributions and homogeneity of variance were checked before further analyses. In case of violating these assumptions, either log transformation or other appropriate transformation (e.g. square root, reciprocal) was applied. If the assumptions were fulfilled as such or after transformation, one-way ANOVA was used to study if the values obtained between the groups were statistically different (with p<0.05). If differences were found, Tukey's HSD test was used for pairwise comparison between all groups. If the assumptions were not fulfilled even after the transformations described above, the non-parametric Kruskal-Wallis test followed by Mann-Whitney U-test were used.
The statistical analysis of incidence of lymph node metastases was done using Fisher's exact test as one-sided test in which the null hypothesis reflected the assumption that the treatment […].

[1] = Body weight in the orthotopic PC-3 prostate cancer model
Experimental: as §1
The animals were weighed twice a week. For the last 5 days of the study, the animals were observed daily to monitor the progression of disease. Appearance of any clinical signs was recorded on follow-up forms. Analgesic was given if needed.
as §2, §3
We have studied the effects of Val201 on cell proliferation of the ER positive human prostate cancer cell line PC-3 in vitro and growth and metastatis in vivo in an orthotopic xenograft model. The proliferation effects were studied for 100 pM, 1 nM, 10 nM, 100 nM and 1 μM concentrations of VAL201 by measuring WST-1 values at days 3, 5, 7 and 9. Groups with vehicle and 1 μM gemcitabine as reference compound were included in the study. […] PC-3 cells in Matrigel were inoculated orthotopically into the prostate. Subcutaneous dosing was started at day 1 and continued daily for 28 days. The mice were weighed twice a week. Orthotopic tumors were measured by calliper and the prostate and the regional lymph nodes were harvested at sacrifice. Metastases in lymph nodes were determined from HE stained paraffin sections.

Ac-PPPHPHARIK-NH2 [VAL001]
EGF-increased motility (HT1080 cells): inhibited at a similar extent | inhibition of the development of lymph node metastases (PC-3 cells; 0.04 mg/kg s.c. daily 28 days): 50% | incidence of lymph node metastasis (PC-3 cells; 0.04 mg/kg s.c. daily 28 days, Fisher's exact test p=0.01643): statistically significantly less; also recorded: inhibited statistically significantly | inhibition of the development of lymph node metastases (PC-3 cells; 0.4 mg/kg s.c. daily 28 days): 50% | incidence of lymph node metastasis (PC-3 cells; 0.4 mg/kg s.c. daily 28 days, Fisher's exact test p=0.03913): statistically significantly less; also recorded: inhibited statistically significantly | decrease in tumor volume (PC-3 cells; 0.4 mg/kg s.c. daily 28 days, not statistically significant): 35% | statistically significant effects on orthotopic tumor growth (PC-3 cells; 0.04-20 mg/kg s.c. daily 28 days): not observed | tumor volumes between the treatment groups (PC-3 cells; 0.04-20 mg/kg s.c. daily 28 days, at sacrifice): no statistically significant differences | Total tumor volumes during the study (PC-3 cells; day 5, single animals): 22.3 and 11.5 and 21.5 and 16.9 and 26.7 and 29.3 (2×) and 27.8 | Total tumor volumes during the study (PC-3 cells; day 7, single animals, in mm³ (unit assumed)): 21.1 and 7.8 and 17.8 and 22.0 and 16.9 and 18.3 and 31.2 and 29.6 | Total tumor volumes during the study (PC-3 cells; day 9, single animals, in mm³ (unit assumed)): 28.2 and 18.2 and 32.4 and 21.3 and 29.6 and 57.8 and 76.4 and 34.4 | Total tumor volumes during the study (PC-3 cells; day 12, single animals, in mm³ (unit assumed)): 51.3 and 20.1 and 39.6 and 56.1 and 24.6 and 57.0 and 116.3 and 70.3 | Total tumor volumes during the study (PC-3 cells; day 14, single animals, in mm³ (unit assumed)): 71.8 and 55.8 and 72.5 and 65.8 and 54.7 and 114.0 and 176.1 and 106.7 | Total tumor volumes during the study (PC-3 cells; day 16, single animals, in mm³ (unit assumed)): 87.7 and 70.9 and 140.3 and 85.4 and 62.6 and 167.3 and 183.2 and 112.1 | Total tumor volumes during the study (PC-3 cells; day 19, single animals, in mm³ (unit assumed)): 202.0 and 163.3 and 186.2 and 140.9 and 104.4 and 181.7 and 332.0 and 227.3 | Total tumor volumes during the study (PC-3 cells; day 21, single animals, in mm³ (unit assumed)): 182.3 and 152.1 and 196.2 and 139.5 and 120.6 and 278.5 and 365.1 and 240.1 | Total tumor volumes during the study (PC-3 cells; day 23, single animals, in mm³ (unit assumed)): 158.4 and 95.0 and 289.5 and 181.8 and 127.8 and 278.8 and 386.3 and 323.8 and 345.6 | Total tumor volumes during the study (PC-3 cells; day 26, single animals, in mm³ (unit assumed)): 277.2 and 233.9 and 254.0 and 243.7 and 239.4 and 381.2 and 618.5 and 328.7 and 518.9 | Total tumor volumes during the study (PC-3 cells; day 29, single animals, in mm³ (unit assumed)): 382.9 and 204.8 and 258.0 and 216.8 and 245.1 and 418.0 and 750.0 and 430.6 and 288.0 | Body weight at sacrifice relative to maximum weight ([1]; 0.004 mg/kg, mean): 96.6 | Body weight at sacrifice relative to maximum weight ([1]; 0.004 mg/kg, single animals): 95.1 (2×) and 100.0 and 93.8 and 95.7 and 97.9 and 94.1 and 97.8 and 97.6 and 99.2 | Body weight at sacrifice relative to maximum weight ([1]; 0.04 mg/kg, mean): 96.1 | Body weight at sacrifice relative to maximum weight ([1]; 0.04 mg/kg, single animals): 100.0 and 96.1 and 94.9 and 96.7 and 93.8 and 93.0 and 94.8 and 98.0 (2×) and 96.2 | Body weight at sacrifice relative to maximum weight ([1]; 0.4 mg/kg, mean): 97.6 | Body weight at sacrifice relative to maximum weight ([1]; 0.4 mg/kg, single animals): 98.2 and 91.1 and 96.6 and 90.7 and 100.0 (4×) and 99.5 and 99.6 | Body weight at sacrifice relative to maximum weight ([1]; 4 mg/kg, mean): 95.3 | Body weight at sacrifice relative to maximum weight ([1]; 4 mg/kg, single animals): 100.0 and 90.8 and 86.2 and 95.7 and 96.8 and 95.5 and 98.2 and 98.4 and 98.0 and 93.3
